How the values were obtained:
Assay type in all cases: cell-based, human
[1] = system: HTT; experiment: Splicing RT-qPCR assay, HTT mRNA canonical junction (CJ) and alternative junction (AJ); details: Homo sapiens; for AC50: increase in AJ mRNA
Description: (§1) Compounds described herein were used to modulate RNA transcript abundance in cells. The expression of a target mRNA was measured by detecting the formation of an exon-exon junction in the canonical transcript (CJ). A compound mediated exon-inclusion event was detected by observing an increase in formation of a new junction with an alternative exon (AJ). Real-time qPCR assays were used to detect these splicing switches and interrogate the potency of various compounds towards different target genes. A high-throughput real time quantitative PCR (RT-qPCR) assay was developed to measure these two isoforms of the mRNA (CJ and AJ) for exemplary genes, such as HTT, SMN2, and MYB, together with a control housekeeping gene, GAPDH or GUSB or PPIA, used for normalization. Briefly, the A673 or K562 cell line was treated with various compounds described herein (e.g., compounds of Formula (I)). After treatment, the levels of the HTT, MYB, or SMN2 mRNA targets were determined from each sample of cell lysate by cDNA synthesis followed by qPCR.
(§2) The A673 cell line was cultured in DMEM with 10% FBS. Cells were diluted with full growth media and plated in a 96-well plate (15,000 cells in 100 ul media per well). The plate was incubated at 37° C. with 5% CO2 for 24 hours to allow cells to adhere. An 11-point 3-fold serial dilution of the compounds was made in DMSO then diluted in media in an intermediate plate. Compounds were transferred from the intermediate plate to the cell plate with the top dose at a final concentration of 10 uM in the well. Final DMSO concentration was kept at or below 0.25%. The cell plate was returned to the incubator at 37° C. with 5% CO2 for an additional 24 hours.
(§3) The K562 cell line was cultured in IMDM with 10% FBS. For K562, cells were diluted with full growth media and plated in either a 96-well plate (50,000 cells in 50 uL media per well) or a 384-well plate (8,000-40,000 cells in 45 uL media per well). An 11-point 3-fold serial dilution of the compounds were made in DMSO then diluted in media in an intermediate plate. Compound was transferred from the intermediate plate to the cell plate with the top dose at a final concentration of 10 uM in the well. Final DMSO concentration was kept at or below 0.25%. Final volume was 100 uL for 96-well plate and 50 uL for 384-well plate. The cell plate was then placed in an incubator at 37° C. with 5% CO2 for 24 hours.
(§4) The cells were then gently washed with 50 uL-100 uL cold PBS before proceeding to addition of lysis buffer. 30 uL-50 μL of room temperature lysis buffer with DNAse I (and optionally RNAsin) was added to each well. Cells were shaken/mixed thoroughly at room temperature for 5-10 minutes for lysis to take place and then 3 uL-5 μL of room temperature stop solution was added and wells were shaken/mixed again. After 2-5 minutes, the cell lysate plate was transferred to ice for RT-qPCR reaction setup. The lysates could also be frozen at −80° C. for later use.
(§5) In some cases, a direct lysis buffer was used. An appropriate volume of 3× lysis buffer (10 mM Tris, 150 mM NaCl, 1.5%-2.5% Igepal and 0.1-1 U/uL RNAsin, pH 7.4) was directly added to either K562 or A673 cells in media and mixed by pipetting 3 times. The plates were then incubated at room temperature with shaking/rocking for 20-50 minutes to allow for lysis to take place. After this time, the cell lysate plate was transferred to ice to set up for the RT-qPCR reactions. The lysates could also be frozen at −80° C. for later use.
(§6) To set up 10 uL RT-qPCR reactions, cell lysates were transferred to 384-well qPCR plates containing the master mix according to the table below. The plates were sealed, gently vortexed, and spun down before the run. The volumes were adjusted accordingly in some instances where the reaction was carried in 20 μL. The table below summarizes the components of the RT-qPCR reactions:
(§7) The RT-qPCR reaction was performed using a QuantStudio (ThermoFisher) under the following fast cycling conditions. […]

[2] = system: MYB; experiment: Splicing RT-qPCR assay, MYB mRNA canonical junction (CJ) and alternative junction (AJ); details: Homo sapiens; for AC50: increase in AJ mRNA
Summary of the method: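 First, A673 cells adhered 24 h, while K562 cells were plated directly. Next, compounds were added as an 11-point 3-fold series from 10 uM for 24 h. Finally, lysates went to RT-qPCR, with 2^(−ΔΔCt) values converted to percentage response.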

[3] = system: SMN2; experiment: Splicing RT-qPCR panel, SMN2 canonical junction (CJ) mRNA; details: Homo sapiens, RT-qPCR panel, canonical junction mRNA; compound concentration having 50% response in CJ decrease; read-out: SMN2 IC50 (decrease in CJ mRNA levels)
Description: as §1, §2, §3, §4, §5, §6, §7

[4] = system: Target C; experiment: Splicing RT-qPCR panel, Target C canonical junction (CJ) mRNA; details: Homo sapiens, RT-qPCR panel, canonical junction mRNA; compound concentration having 50% response in CJ decrease; read-out: Target C IC50 (decrease in CJ mRNA levels)
Description: as §1, §2, §3, §4, §5, §6, §7

[5] = system: MYB; experiment: HiBiT protein abundance assay, MYB; details: Homo sapiens, K562, 24 h, Table 13A, modified K562 cells
Summary of the method: (§8)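 HiBiT-tagged endogenous targets in K562 cells treated 24 h at 37° C. with 10-point 3-fold dilutions (top 10 μM, DMSO ≤0.25%). Luminescence read after lytic LgBiT detection; response normalised to unmodified-cell and DMSO controls, IC50 interpolated at 50% from four-parameter logistic fit.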

[6] = system: HTT; experiment: HiBiT protein abundance assay, HTT; details: Homo sapiens, K562, 24 h, Table 13A, modified K562 cells
Summary of the method: as §8

[7] = system: Target C; experiment: HiBiT protein abundance assay, Target C; details: Homo sapiens, K562, 24 h, Table 13A, modified K562 cells
Description: • Promega Nano-Glo HiBiT Lytic Detection System (cat #N3030) • Coming 384-well TC-treated microplates (cat #3570) • Synthego Engineered Cells Knock-In Clones
Cells were maintained in IMIDM with 10% FBS. Before the assay, cells were diluted with […] growth media (IMIDM+[…] media) and were seeded in a 384-well plate at a density of 10000 cells/well (for each cell line listed in Table 12). Each compound was prepared as a 10-point 3-fold serial dilution in DMSO with the top dose at a final concentration of 10 μM in the well. Unmodified K562 cells were added at the previously specified density with DMSO to serve as an assay baseline and positive control (PC) and DMSO only with the respective modified cell lines was added to the negative control (NC) columns. Final DMSO concentration was kept at or below 0.25%. Treated cell plates were placed in an incubator at 37° C. with 5% CO2 for 24 hours. After 24 hours, 25 μL of Complete HiBit Lytic reagent was added to each well at room temperature (e.g. one plate requiring 10 mL Lytic Buffer, 100 μL LgBiT Protein, 200 μL Lytic Substrate), shaken for 5 minutes at 600 RPM, then left to sit for 10 minutes for signal to stabilize before reading on a Spark Cyto plate reader (Tecan) with a 500 ms measurement time.
To determine compound effects on protein abundance of each target in Table 12, the percent response for each respective cell line was calculated at each compound concentration as follows:
For the normalized response at each concentration, a four-parameter logistical regression was fit to the data and the response was interpolated at the 50% value to determine a concentration for protein abundance at 50% (IC50) the untreated control.

[8] = 24 h, decrease in CJ mRNA, A673 or K562 cells, 24 hours treatment, RT-qPCR, read-out: HTT CJ IC50
[9] = 24 h, A673 or K562 cells, 24 hours treatment, RT-qPCR
[10] = RT-qPCR panel, canonical junction mRNA, compound concentration having 50% response in CJ decrease, read-out: HTT IC50 (decrease in CJ mRNA levels)
[11] = 24 h, decrease in CJ mRNA, A673 or K562 cells, 24 hours treatment, RT-qPCR, read-out: MYB CJ IC50
[12] = RT-qPCR panel, canonical junction mRNA, compound concentration having 50% response in CJ decrease, read-out: MYB IC50 (decrease in CJ mRNA levels)

Row | SMILES | IC50 [1, 8] | AC50 [1, 9] | IC50 [1, 10] | IC50 [2, 11] | AC50 [2, 9] | IC50 [2, 12] | IC50 [3] | IC50 [4] | IC50 [5] | IC50 [6] | IC50 [7]
1 | Cc1cc(-c2ccc(-c3ccc(O[C@H]4C[C@@H]5CC(F)(F)[C@H](C4)N5)nn3)c3[nH]ncc23)ccn1 (single isomer, unassigned) [Compound 370] | > 10 µM | > 10 µM | > 10 µM | > 10 µM | > 10 µM | > 10 µM | 1 to 10 µM | 1 to 10 µM | 1 to 10 µM | 1 to 10 µM | > 10 µM
2 | FC1(F)C[C@@H]2C[C@@H](Oc3ccc(-c4ccc(-c5cn[nH]c5)c5cn[nH]c45)nn3)C[C@H]1N2 (stereo in doubt) [Compound 373, 7-[6-({6,6-difluoro-8-azabicyclo[3.2.1]octan-3-yl}oxy)pyridazin-3-yl]-4-(1H-pyrazol-4-yl)-1H-indazole] | 0.1 to 1 µM | 0.1 to 1 µM | 0.1 to 1 µM | 1 to 10 µM | 0.1 to 1 µM | 1 to 10 µM | 0.1 to 1 µM | 1 to 10 µM | 1 to 10 µM | 0.1 to 1 µM | 1 to 10 µM
3 | CN(c1ccc(-c2ccc(-c3cn[nH]c3)c3cn[nH]c23)nn1)[C@@H]1C[C@H]2CC(F)(F)[C@@H](C1)N2 (stereo in doubt) [Compound 376, 6,6-difluoro-N-methyl-N-{6-[4-(1H-pyrazol-4-yl)-1H-indazol-7-yl]pyridazin-3-yl}-8-azabicyclo[3.2.1]octan-3-amine] | – | 0.1 to 1 µM | < 0.1 µM | 0.1 to 1 µM | 0.1 to 1 µM | 0.1 to 1 µM | < 0.1 µM | 0.1 to 1 µM | 0.1 to 1 µM | 0.1 to 1 µM | 0.1 to 1 µM
4 | c1n[nH]cc1-c1ccc(-c2ccc(O[C@@H]3C[C@H]4CC[C@@H](C3)N4)nn2)c2[nH]ncc12 [Compound 142] | 0.1 to 1 µM | 0.1 to 1 µM | 0.1 to 1 µM | 0.1 to 1 µM | 0.1 to 1 µM | 0.1 to 1 µM | < 0.1 µM | 0.1 to 1 µM | < 0.1 µM | < 0.1 µM | < 0.1 µM
5 | CN(c1ccc(-c2ccc(-c3cn[nH]c3)c3cn[nH]c23)nn1)[C@H]1C[C@]2(C)CC[C@](C)(C1)N2 [Compound 146] | – | < 0.1 µM | < 0.1 µM | 0.1 to 1 µM | 0.1 to 1 µM | 0.1 to 1 µM | < 0.1 µM | < 0.1 µM | < 0.1 µM | < 0.1 µM | < 0.1 µM
6 | CN(c1ccc(-c2ccc(-n3cccn3)c3nc[nH]c23)nn1)[C@@H]1C[C@H]2CC[C@@H](C1)N2 [Compound 170] | 1 to 10 µM | 1 to 10 µM | 1 to 10 µM | 1 to 10 µM | 1 to 10 µM | 1 to 10 µM | 0.1 to 1 µM | > 10 µM | 1 to 10 µM | 1 to 10 µM | > 10 µM
7 | CN(c1ccc(-c2ccc(-c3ccn(C)c(=O)c3)c3scnc23)nn1)C1CC(C)(C)NC(C)(C)C1 [Compound 174] | 1 to 10 µM | 1 to 10 µM | 1 to 10 µM | 1 to 10 µM | 1 to 10 µM | 1 to 10 µM | 0.1 to 1 µM | > 10 µM | 1 to 10 µM | 0.1 to 1 µM | > 10 µM
8 | CN(c1ccc(-c2ccc(-c3cnn(C)c3)c3scnc23)nn1)C1CC(C)(C)NC(C)(C)C1 [Compound 175] | > 10 µM | 1 to 10 µM | > 10 µM | > 10 µM | 1 to 10 µM | > 10 µM | 1 to 10 µM | > 10 µM | 1 to 10 µM | 1 to 10 µM | 1 to 10 µM
